Laboratory results published in article PMC9230136 (Pharmaceutics, 2022).
Entries after “also recorded” stand apart in the source; their conditions may differ.

Experiments:
[1] = system: A549, MDA-MB-231, HeLa, HT-29 and Jurkat cancer cell lines; experiment: Antiproliferative activity over the panel of cancer cell lines; type: cell-based, human; settings: mean over the five cancer cell lines; read-out: mean IC50 (antiproliferative activity)
Procedure, shortened: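 HT-29 cells were cultured in RPMI-1640, while MDA-MB-231, A549 and HeLa were cultured in DMEM, both with 10% FBS. Cells were treated 24 h after seeding with 5-fold serial dilutions starting at 10 μM, in triplicate, and incubated for 72 h at 37 °C. Resazurin fluorescence was read at ex 535/em 600 nm.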

[2] = system: Zebrafish embryos; experiment: Acute toxicity assessment in zebrafish embryos; type: in vivo, Danio rerio; settings: for Results (toxicity evaluation) / % Alterations 24 h / % Lethality 24 h / % Alterations 48 h / % Lethality 48 h: 72 hpf embryos
Procedure: Zebrafish embryos at 72 h post fertilization (hpf) were selected for the acute toxicity assay since, at that time, morphogenesis and function of the primary organ systems are complete. Embryos at 72 hpf were assayed in a 12-well plate, 20 larvae/well for each experimental condition.
The zebrafish embryos were treated as described in the Biological Results and Discussion section using drug concentrations selected on the basis of in vitro experimental data. The drugs were added directly to the fish water from 10 mM stock solutions in DMSO of tested compounds. […] CA-4P was employed as the reference compound.
The experiment was carried out at a constant temperature (28.5 °C) in the dark, and at 24 and 48 h time points, zebrafish were subjected to visual observation and image acquisition under a stereomicroscope (Nikon SMZ745T; Nikon, Japan). The number of dead zebrafish embryos for each condition was recorded, and morphological defects were evaluated. The survival rate (%) after treatment was calculated.

[3] = system: HeLa cells; experiment: EdU cell proliferation assay; type: cell-based, human; settings: 25 or 50 nM; 24 h
Procedure: HeLa cells were seeded in a 6-well plate and, after a 24 h incubation, were treated with the desired compounds as indicated in the Biological Results and Discussion section. Cells were re-incubated for one day and then labeled with EdU (10 μM) for 3 h under cell culture conditions. Cells were harvested by centrifugation before proceeding with the fixation step using 3.7% formaldehyde. Next, permeabilization with 0.5% Triton X-100 was performed. The reaction cocktail was prepared and added to each well (100 μL/well) following the manufacturer’s instructions (EdU-Click 488, base click, Sigma-Aldrich. Milano Italy), and the plate was incubated at room temperature for 30 min in the dark. Cells were washed 2 times with phosphate-buffered saline (PBS) before reading samples with a Beckman Coulter Cytomics FC500 instrument (λex/λem = 496/516 nm).

[4] = system: HeLa cells; experiment: ROS production (H2DCFDA); type: cell-based, human; settings: 10, 50 or 100 nM; 24 h
Procedure: The mitochondrial potential was evaluated in HeLa cells by flow cytometry using the cell membrane permeable cationic dye 5,5′,6,6′-tetrachloro-1,1′,3,3′-tetraethyl-imidacarbocyanine iodide (JC-1) (Molecular Probes) as described previously. The production of ROS was measured in HeLa cells by flow cytometry using 2′,7′-dichlorodihydrofluorescein diacetate (H2DCFDA) (Molecular Probes) as described previously.

[5] = system: HeLa cells; experiment: Western blot of cellular protein expression; type: cell-based, human; settings: 24 h
Procedure: Following growth for various times in the presence of 8q, HeLa cells were harvested by centrifugation and washed twice in 0 °C PBS. Cells were lysed with 0.1% (v/v) Triton X-100 containing RNase A at 0 °C, and supernatants were obtained by centrifuging the lysed cells at 15,000× g for 10 min at 4 °C. The protein content of the solutions was measured, and 10 μg of protein from each sample was subjected to sodium dodecyl sulfate polyacrylamide gel electrophoresis. Proteins were transferred by electroblotting to a poly(vinylidene difluoride) Hybond-P membrane from GE Healthcare. Membranes were treated with 5% bovine serum albumin in PBS containing 0.1% Tween 20 overnight at 4 °C. The membranes were then exposed for 2 h at room temperature to primary antibodies directed against cyclin B cdc25c, cdc2 (Y15), BCL-2, cleaved poly (ADP-ribose) polymerase (PARP), MCL-1, XIAP and vinculin (all from Cell Signaling), and subsequently for 1 h to peroxidase-labeled secondary antibodies. The membranes were visualized using ECL select (GE Healthcare), and images were acquired using a Uvitec-Alliance imaging system. Densitometric analysis of Western blots was performed by ImageJ software and the results were normalized to β-actin and represented as fold change with respect to untreated controls.

Cc1cc(Nc2ccc(F)cc2)n2nc(NCCCc3ccccc3)nc2n1 [Compound 8q]
IC50 [1]: 83 nM | death, morphologic changes, developmental abnormalities ([2]; 100 nM and 1 μM, 24 and 48 h): no death and no morphologic changes or developmental abnormalities; also recorded: No abnormal phenotypes or developmental defects were seen | Results (toxicity evaluation) ([2]; 100 nM): Not toxic | % Alterations 24 h ([2]; 100 nM): 0% | % Lethality 24 h ([2]; 100 nM): 0% | % Alterations 48 h ([2]; 100 nM): 0% | % Lethality 48 h ([2]; 100 nM): 0% | Results (toxicity evaluation) ([2]; 1 μM): Not toxic | % Alterations 24 h ([2]; 1 μM): 0% | % Lethality 24 h ([2]; 1 μM): 0% | % Alterations 48 h ([2]; 1 μM): 0% | % Lethality 48 h ([2]; 1 μM): 0% | EdU incorporation / cell proliferation [3]: effective in reducing HeLa cell proliferation | ROS production [4]: significantly increased ROS production in a dose-dependent manner | BCL-2 and MCL-1 expression ([5]; 50 nM): partial reduction in BCL-2 and MCL-1 expression | caspase-3 activation and PARP cleavage ([5]; 50 nM): appearance of the cleaved fragment of the executioner caspase-3 and the consequent cleavage of its substrate PARP | ATR (Ser428) and CHK1 (S345) phosphorylation [5]: appreciable increase in ATR phosphorylation (Ser428) and of its downstream target CHK1 (S345) | cdc2 phosphorylation (Tyr15) [5]: significant reduction in cdc2 phosphorylation (Tyr15)
